From patent US9969715B2, “Compounds useful for treating cancer” (ABIVAX, priority 2012, dated 2018)

How the values were obtained:
[1] = tested on: MDA-MB231-luc-D3H2LN cells; assay: Invasion of MDA-MB231-D3H2LN cells into collagen (example 15 = procedure 2, 48 h drug pre-incubation); format: cell-based; conditions: concentration giving 50% of the anti-invasive effect of 10 μM Y-27632; 48 h pre-incubation, 24 h with 5% FBS; read-out: MDA: Inhib. of invasion: 0.5 × eff. of 10 μM Y-27632 at (μM) av
Protocol: Effect of Drug Compounds on Invasion of MDA-MB231-D3H2LN Cells into Collagen
Preparation of cells at the bottom of a collagen gel: Cells are suspended in a liquid collagen solution (4° C.), distributed into BSA-coated wells, and then collected at the bottom of the wells by centrifugation. The collagen is then solidified by incubation at 37° C. The BSA coating improves the adhesion of the collagen gel.
Pre-treatment with the compounds to be tested: Concentrated drug solutions are then added on top of the collagen, and cells are pre-incubated for 48 h with the drugs at low serum conditions (0.025% FBS).
Stimulation of invasion: Medium with 5% FBS is then added in order to stimulate invasion of the cells into the collagen gel.
(§1) Viability assay, fixation and staining: Following another 24 h incubation, an MTS assay is performed directly on the cells in the collagen. Then, cells are fixed and nuclei are stained.
Analysis: Finally, plates are analyzed using an automated microscope. Fluorescent beads that have been included into the BSA coating serve to detect the bottom of the wells. Pictures of the stained nuclei are taken at the same level (0 μm) as well as 25 μm and 50 μm above.
Negative control: No drug (just DMSO at equivalent concentration). Positive control: 10 μM Y-27632. To avoid edge effects, cells are added only to the 60 central wells B2-G11; lines A and H receive only collagen without cells (blank for the MTS assay) columns 1 and 12 remain free. Each drug is tested at least in triplicate. The positive and negative controls should be tested in several triplicates at different positions on each plate. Typical plate map (−=negative control, +=positive control, 1-12=12 different test conditions, i. e. different drug compounds or concentrations):
Preparation of 4× concentrated drug solutions in MEM+0.1% FBS+2% Lutrol E-400+0.8% DMSO: Mix each 620 μl MEM+0.1% FBS+2% Lutrol E-400 with each 4 μl DMSO+each 1 μl of the 50 mM compound stock solutions (yielding […] and 0.8% DMSO). If the desired final compound concentration is <5 μM, then further dilute in MEM+0.1% FBS+0.8% DMSO. Negative control: MEM+0.1% FBS+2% Lutrol E-400+0.8% DMSO without any drug. Preparation of the positive control: Mix 4.5 ml MEM+0.1% FBS+2% Lutrol E-400+[…] with 36 μl 5 mM Y-27632 (freshly thawed aliquot) (yielding 40 μM).
add each 33 μl/well of the 4× concentrated drug solutions in MEM+0.1% FBS+2% Lutrol E-400+0.8% DMSO to the corresponding wells (yields 1× concentrated drugs in MEM+0.025% FBS+0.5% Lutrol E-400+0.2% DMSO final)
incubate 48 h at 37° C./5% CO2
incubate 24 h at 37° C./5% CO2
for each well, calculate the mean invasion distance of the counted cells: (25 μm×number of cells at 25 μm+50 μm×number cells at 50 μm)/sum of cells at 0, 25 and 50 μm
invalidate any replicate with a CV≥50% (compound to be re-tested, or assay to be repeated if CV≥50% for the untreated negative control or the compound Y-27632-treated positive control). Y27632 is a selective inhibitor of the Rho-associated protein kinase p160ROCK of the following formula
validate the assay only if the mean invasion distance of the cells treated with 10 μM Y-27632 (positive control) is decreased by ≥40% as compared to the untreated negative control
(§2) Final analysis: Determine the concentration at which a given compound has 50% of the anti-invasive effect of the positive control (10 μM Y-27632). Determine the toxicity (=loss of viability) of the compound under these conditions.
Here, invasion (into collagen) is the concentration of the compound necessary to reach 50% of the inhibition effect compared to 10 μM Y-27632.
Standard operating procedure 2 is exactly the same as the procedure as described in example 15.

human PBMC = assay: Toxicity assay under normal cell culture conditions (MTS), PBMC; format: cell-based; conditions: human PBMC, RPMI+10% FBS+IL-2, 72 h incubation, MTS
Protocol: (§3) Toxicity Assays (Under Normal Cell Culture Conditions):
(§4) Compounds were prepared as for the invasion assay, and then added to either MDA-MB231-luc-D3H2LN cells (2000/well) under normal culture conditions (MEM+10% FBS), or human PBMC (75000/well, in RPMI+10% FBS+IL-2) in standard 96-well tissue culture plates. After 72 h incubation, a standard MTS assay was performed according to the manufacturer's instructions (Promega Ref. G3581). Compounds were tested at various concentrations (concentration-response curves) in order to determine the concentrations at which 50% toxicity is obtained.

[2] = tested on: MDA-MB231-luc-D3H2LN cells; assay: Toxicity assay under normal cell culture conditions (MTS), MDA cells; format: cell-based, human; conditions: MDA-MB231-luc-D3H2LN cells, MEM+10% FBS, 72 h incubation, MTS
Protocol: (§5) In order to detect possible toxic effects, all compounds are tested in parallel in a viability assay. The viability assay is performed in parallel on serum-starved cells (as in the invasion assay) vs. cells under normal culture conditions (10% FBS).
as §3, §4

[3] = tested on: MDA-MB231-luc-D3H2LN cells; assay: Viability (MTS) assay on the cells in collagen under invasion assay conditions; format: cell-based, human; conditions: loss of viability at the concentration giving 0.5 × effect of 10 μM Y-27632, invasion assay conditions
Protocol: as §1, §5
Viability Assay: MTS Assay:
add each 33 μl/well of the MTS reagent, incubate 3-4 h at 37° C./5% CO2
read absorbance at 490 nm (proportional to the viability)
calculate the background-corrected signals by subtracting the means of the background signals in absence of cells from the corresponding signals in presence of cells
normalize the background-corrected signals with respect to the mean signal of the negative controls (no drug) (viabilities are thus expressed in “% of control”)
as §2

| Compound | IC50 [1] | PBMC tox.: 50% tox. at (μM) av (human PBMC) | MDA tox: 50% tox. at (μM) av [2] | (+ MDA tox. under these cond.) % tox [3] |
| --- | --- | --- | --- | --- |
| CCN(CC)CCCNC(=O)c1ccc(Nc2cccc(C(=O)Nc3ccncc3)c2)cc1 [Compound 2, 3-((4-((3-(diethylamino)propyl)carbamoyl)phenyl)amino)-N-(pyridin-4-yl)benzamide] | > 5 µM | 156 µM | 103 µM | – |
| CN1CCN(CCCNC(=O)c2cccc(Nc3cccc(C(=O)Nc4ccncc4)c3)c2)CC1 [Compound 6, N-(3-(4-methylpiperazin-1-yl)propyl)-3-((3-(pyridin-4-ylcarbamoyl)phenyl)amino)benzamide] | 0.16 µM | 100 µM | 58 µM | <10% |
| O=C(NCCCN1CCCCC1)c1cccc(Nc2cccc(C(=O)Nc3ccncc3)c2)c1 [Compound 7, N-(3-(piperidin-1-yl)propyl)-3-((3-(pyridin-4-ylcarbamoyl)phenyl)amino)benzamide] | 0.11 µM | 38 µM | 25 µM | <10% |
| CN1CCN(C(=O)c2cccc(Nc3cccc(C(=O)Nc4ccncc4)c3)c2)CC1 [Compound 8, 3-((3-(4-methylpiperazine-1-carbonyl)phenyl)amino)-N-(pyridin-4-yl)benzamide] | 7.5 µM | – | >>100 μM | – |
| O=C(Nc1ccncc1)c1cccc(Nc2cccc(S(=O)(=O)NCCN3CCCCC3)c2)c1 [Compound 10, 3-((3-(N-(2-(piperidin-1-yl)ethyl)sulfamoyl)phenyl)amino)-N-(pyridin-4-yl)benzamide] | 0.53 µM | 29 µM | 45 µM | <10% |
| CCN(CC)CCCNC(=O)c1cccc(Nc2ccc(C(=O)Nc3ccncc3)cc2)c1 [Compound 13, N-(3-(diethylamino)propyl)-3-((4-(pyridin-4-ylcarbamoyl)phenyl)amino)benzamide] | > 5 µM | 34 µM | 93 µM | – |
| O=C(NCCCN1CCOCC1)c1cccc(Nc2ccc(C(=O)Nc3ccncc3)cc2)c1 [Compound 14, N-(3-morpholinopropyl)-3-((4-(pyridin-4-ylcarbamoyl)phenyl)amino)benzamide] | > 2.5 µM | 20 µM | 70 µM | – |
| O=C(Nc1ccncc1)c1ccc(Nc2cccc(S(=O)(=O)NCCCN3CCOCC3)c2)cc1 [Compound 15, 4-((3-(N-(3-morpholinopropyl)sulfamoyl)phenyl)amino)-N-(pyridin-4-yl)benzamide] | 5 µM | 36 µM | >>44 μM | <10% |
| O=C(Nc1ccncc1)c1ccc(Nc2cccc(S(=O)(=O)NCCN3CCCC3)c2)cc1 [Compound 16, N-(pyridin-4-yl)-4-((3-(N-(2-(pyrrolidin-1-yl)ethyl)sulfamoyl)phenyl)amino)benzamide] | ≥ 4.6 µM | 10 µM | 78 µM | – |
| CCN(CC)CCCNC(=O)c1cccc(Nc2cccc(C(=O)N(C)c3ccncc3)c2)c1 [Compound 17, 3-((3-((3-(diethylamino)propyl)carbamoyl)phenyl)amino)-N-methyl-N-(pyridin-4-yl)benzamide] | 3 µM | >100 µM | >100 µM | <10% |
| CN(C(=O)c1cccc(Nc2cccc(C(=O)NCCCN3CCCC3)c2)c1)c1ccncc1 [Compound 18, N-methyl-N-(pyridin-4-yl)-3-((3-((3-(pyrrolidin-1-yl)propyl)carbamoyl)phenyl)amino)benzamide] | 3.45 µM | >100 µM | >100 µM | <10% |
| CCN(CC)CCCNS(=O)(=O)c1cccc(Nc2cccc(C(=O)N(C)c3ccncc3)c2)c1 [Compound 19, 3-((3-(N-(3-(diethylamino)propyl)sulfamoyl)phenyl)amino)-N-methyl-N-(pyridin-4-yl)benzamide] | > 5 µM | >100 µM | >100 µM | – |
| CN(C(=O)c1cccc(Nc2cccc(S(=O)(=O)NCCCN3CCOCC3)c2)c1)c1ccncc1 [Compound 23, N-methyl-3-((3-(N-(3-morpholinopropyl)sulfamoyl)phenyl)amino)-N-(pyridin-4-yl)benzamide] | > 5 µM | >70 µM | >100 µM | – |
| CCN(CC)CCCNC(=O)c1cccc(Nc2ccc(C(=O)Nc3ccncc3)cc2)n1 [Compound 36, N-(3-(diethylamino)propyl)-6-((4-(pyridin-4-ylcarbamoyl)phenyl)amino)picolinamide] | > 5 µM | 58 µM | >>100 μM | – |
| CCN(CC)CCCNS(=O)(=O)c1cccc(Nc2cc(C(=O)Nc3ccncc3)ccn2)c1 [Compound 46, 2-((3-(N-(3-(diethylamino)propyl)sulfamoyl)phenyl)amino)-N-(pyridin-4-yl)isonicotinamide] | 7.5 µM | >100 µM | >100 µM | – |
